Among the data in article PMC11760891, “Discovery and Characterization of Two Selective Inhibitors for a Mu-Class Glutathione S-Transferase of 25 kDa from Taenia solium Using Computational and Bioinformatics Tools” (Biomolecules, 2024) are inhibition and IC50 values, retold here.

Assay [1] has as its target T1, HGSTM1 (Homo sapiens, UniProt P09488).
T1 construct: gene GSTM1; commercial human GST M1 (Oxford Biomedical Research GS65)
T1 sequence (P09488 2-218): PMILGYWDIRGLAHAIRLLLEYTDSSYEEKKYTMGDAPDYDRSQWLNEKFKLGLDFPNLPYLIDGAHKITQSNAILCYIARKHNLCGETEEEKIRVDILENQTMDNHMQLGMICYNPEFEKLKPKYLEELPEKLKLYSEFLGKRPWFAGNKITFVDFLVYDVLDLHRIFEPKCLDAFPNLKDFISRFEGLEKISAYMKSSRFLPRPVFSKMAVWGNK
Briefly: GSH-CDNB conjugation, absorbance […] nm, single concentration. It is filed as biochemical.

In assay [2] the target is T2, Ts25GST (Taenia solium, UniProt Q8MWS0).
T2 construct: about 25 kDa on SDS-PAGE; dimer; no tag mentioned
T2 sequence (Q8MWS0 1-219): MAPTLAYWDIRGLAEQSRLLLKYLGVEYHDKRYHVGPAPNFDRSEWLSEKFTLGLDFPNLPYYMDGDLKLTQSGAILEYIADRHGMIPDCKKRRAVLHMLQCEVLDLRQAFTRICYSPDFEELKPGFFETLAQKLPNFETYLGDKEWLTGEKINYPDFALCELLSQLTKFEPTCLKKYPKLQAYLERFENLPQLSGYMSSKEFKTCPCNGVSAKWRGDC
Briefly: GSH-CDNB conjugation, absorbance […] nm, dose-response. It is filed as biochemical.

For orientation: inhibition means the drop in the measured response relative to a control, in per cent. A low value points to a weak effect. The molecule `O=C(CSc1ncc(-c2ccccc2)nn1)NC1=NN=C(c2ccccc2)CS1` [i11] showed an inhibition at 40 µM in assay [1] of 33.4 ± 2.2%.

The term IC50 denotes the concentration needed to halve the response being measured. A higher IC50 goes with weaker potency. Take `O=C(CCN1C(=O)c2ccccc2C1=O)Nc1ccc(Nc2ccccc2)cc1` [i15]: inhibition in assay [2] was half-maximal at 25.7 ± 1.1 µM (IC50). In assay [1], testing at 40 µM gave an inhibition of 30.8 ± 1.9%.
